In ChEMBL document CHEMBL1201862, “PubChem BioAssay data set” (2004):
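Exposure lasted 48 hours, with cells grown in 96-well plates and compounds tested at five concentrations. Abbreviation: GI50, concentration required for 50% inhibition of growth.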 Calls of active or inactive are those of the source. No stated cut-off is given here; in the data, active = GI50 up to about 1.1 µM and inactive = higher.

What was measured:
Experiment in all cases: DTP human tumour cell line panel, 48 h
Malme-3M = test system: Malme-3M
HCT-116 = test system: HCT-116
IGROV-1 = test system: IGROV-1
SF-268 = test system: SF-268
HOP-62 = test system: HOP-62
UO-31 = test system: UO-31
RPMI-8226 = test system: RPMI-8226
SF-295 = test system: SF-295
M14 = test system: M14
HL-60 = test system: HL-60
HOP-92 = test system: HOP-92
OVCAR-8 = test system: OVCAR-8
SF-539 = test system: SF-539
KM12 = test system: KM12
OVCAR-4 = test system: OVCAR-4
SW-620 = test system: SW-620
COLO 205 = test system: COLO 205
SK-OV-3 = test system: SK-OV-3

Measured: GI50

CCOc1ccc(C(CN2CCOCC2)C(C)=O)cc1OC (stereo not drawn)
inactive: Malme-3M 18.5 µM | HCT-116 20.4 µM | IGROV-1 25.2 µM | SF-268 19.7 µM | HOP-62 21 µM | UO-31 14.6 µM | RPMI-8226 11.5 µM | SF-295 39.6 µM | M14 17.5 µM | HL-60 3.78 µM | HOP-92 18.9 µM | OVCAR-8 20.1 µM | SF-539 16 µM | KM12 15.3 µM | OVCAR-4 18.3 µM | SW-620 16.4 µM | COLO 205 6.62 µM

CCCCCCC(O)CC[C@H]1CCC[C@@H](C)N1 (stereo partly drawn)
inactive: Malme-3M > 100 µM | HCT-116 > 100 µM | IGROV-1 > 100 µM | SF-268 > 31.6 µM | HOP-62 > 31.6 µM | UO-31 > 84.3 µM | RPMI-8226 > 100 µM | SF-295 > 31.6 µM | M14 > 100 µM | HL-60 > 100 µM | HOP-92 > 100 µM | OVCAR-8 > 10 µM | SF-539 > 100 µM | KM12 > 10 µM | OVCAR-4 > 10 µM | SW-620 > 100 µM | COLO 205 > 31.6 µM | SK-OV-3 > 100 µM

O=S(=O)(N/N=C/c1ccc(/C=N/NS(=O)(=O)c2ccccc2)cc1)c1ccccc1
inactive: Malme-3M > 100 µM | HCT-116 57.3 µM | IGROV-1 37.9 µM | SF-268 > 100 µM | HOP-62 44.9 µM | UO-31 63.2 µM | RPMI-8226 45 µM | SF-295 15.5 µM | M14 > 100 µM | HL-60 23.2 µM | HOP-92 31.8 µM | OVCAR-8 42 µM | SF-539 29 µM | KM12 35.8 µM | OVCAR-4 63.7 µM | COLO 205 21.4 µM | SK-OV-3 > 100 µM

O=S1(=O)OCCOS(=O)(=O)C1Cc1ccccc1
inactive: Malme-3M > 100 µM | HCT-116 48.4 µM | IGROV-1 28.8 µM | SF-268 39.1 µM | HOP-62 52.8 µM | UO-31 57.8 µM | RPMI-8226 18.7 µM | SF-295 53.8 µM | HL-60 21.4 µM | HOP-92 70.6 µM | OVCAR-8 70.1 µM | SF-539 26.5 µM | KM12 > 100 µM | OVCAR-4 43.5 µM | SW-620 65 µM | COLO 205 19.1 µM | SK-OV-3 > 100 µM

Cc1cc(C)c(C2=NO[C@@H]3C(=O)N(c4ccc(Cc5ccc(N6C(=O)[C@H]7C(c8c(C)cc(C)cc8C)=NO[C@H]7C6=O)cc5)cc4)C(=O)[C@H]23)c(C)c1
inactive: Malme-3M > 100 µM | IGROV-1 > 100 µM | SF-268 > 100 µM | HOP-62 > 100 µM | UO-31 > 100 µM | RPMI-8226 > 100 µM | SF-295 > 100 µM | M14 64.4 µM | HL-60 > 100 µM | HOP-92 > 100 µM | OVCAR-8 > 100 µM | SF-539 > 100 µM | KM12 > 100 µM | OVCAR-4 > 100 µM | SW-620 > 100 µM | COLO 205 > 100 µM | SK-OV-3 > 100 µM

Cc1cc(C)n(-c2c(O)ccc(O)c2-n2nc(C)cc2C)n1
inactive: Malme-3M > 100 µM | IGROV-1 > 100 µM | SF-268 > 100 µM | HOP-62 > 100 µM | UO-31 > 100 µM | RPMI-8226 > 100 µM | SF-295 81.3 µM | M14 > 100 µM | HL-60 > 100 µM | HOP-92 > 100 µM | OVCAR-8 > 100 µM | SF-539 > 100 µM | KM12 > 100 µM | OVCAR-4 > 100 µM | SW-620 > 100 µM | COLO 205 > 100 µM | SK-OV-3 > 100 µM

CN1CCCc2nc3ccccc3n2C1
inactive: Malme-3M > 100 µM | HCT-116 > 100 µM | IGROV-1 > 100 µM | SF-268 > 100 µM | HOP-62 > 100 µM | UO-31 > 100 µM | RPMI-8226 23.7 µM | SF-295 > 100 µM | M14 > 100 µM | HL-60 > 100 µM | HOP-92 > 100 µM | OVCAR-8 > 100 µM | SF-539 > 100 µM | KM12 > 100 µM | OVCAR-4 > 100 µM | SW-620 > 100 µM | COLO 205 > 100 µM | SK-OV-3 > 100 µM

Cc1cccc(C)c1NC(=O)C(=O)C(C#N)c1ccccc1 (stereo not drawn)
inactive: Malme-3M > 100 µM | HCT-116 > 100 µM | IGROV-1 > 100 µM | SF-268 > 100 µM | HOP-62 > 100 µM | UO-31 > 100 µM | SF-295 > 100 µM | M14 > 100 µM | HL-60 > 100 µM | HOP-92 > 100 µM | OVCAR-8 > 100 µM | SF-539 > 100 µM | KM12 > 100 µM | OVCAR-4 > 100 µM | SW-620 > 100 µM | COLO 205 > 100 µM | SK-OV-3 > 100 µM
